# Where two headings read alike, the source gives them in different places.
# Tests used:
# [1] = tested on: Beet Armyworm (Spodoptera exigua) ("BAW"), second instar larvae; test: Bioassay on beet armyworm (BAW), 128-well diet tray assay; type: in vivo; settings: for pest or weed control at 50 µg/cm2: Spodoptera exigua; for BAW rating: C = not tested, D = no activity noticed
# In short: (§1)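 After sealing with a clear self-adhesive lid, the trays are incubated at 25° C. with 14 h light and 10 h dark for 5 to 7 days; mortality in each well is recorded as a percentage and averaged across the eight wells.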
# [2] = tested on: Cabbage Looper (Trichoplusia ni) ("CL"), second instar larvae; test: Bioassay on cabbage looper (CL), 128-well diet tray assay; type: in vivo; settings: for CL rating: C = not tested, D = no activity noticed
# In short: as §1
# [3] = read-out: BAW (Biological Results, rating)
# [4] = Trichoplusia ni, read-out: CL (Biological Results, rating)
# [5] = Trichoplusia ni, read-out: CL rating
SMILES,"pest or weed control at 50 µg/cm2 [1, 3]","pest or weed control at 50 µg/cm2 [2, 4]",pest or weed control at 50 µg/cm2 ([1]; read-out: BAW rating),"pest or weed control at 50 µg/cm2 [2, 5]",further results
"Cc1ccc(OCCC(F)(F)F)c(N2C(=O)CS/C2=N\C(=O)Nc2ccc(-n3cnc(-c4ccc(OC(F)(F)F)cc4)c3)cc2Cl)c1 [Compound J790, (Z)-1-(2-Chloro-4-(4-(4-(trifluoromethoxy)phenyl)-1H-imidazol-1-yl)phenyl)-3-(3-(5-methyl-2-(3,3,3-trifluoropropoxy)phenyl)-4-oxothiazolidin-2-ylidene)urea]",,,,,"BAW rating (% control or mortality class) ([1]; Table ABC, species BAW, 128-well diet tray assay, second instar larvae): A (50-100); mortality at 50 µg/cm2 ([2]; Trichoplusia ni, Table ABC, species CL, 128-well diet tray assay, second instar larvae, read-out: CL rating (% control or mortality class)): 50 to 100%"
COc1ccc(CC(F)(F)F)c(N2C(=O)CS/C2=N\C(=O)NCC(F)c2ccc(-c3ncn(-c4ccc(OC(F)(F)F)cc4)n3)c(OC)c2)c1 (centres unmarked) [Compound H17],50 to 100%,50 to 100%,,,
Cc1ccc(COCC(F)(F)F)c(N2C(=O)CS/C2=N\C(=O)Nc2ccc(-c3ncn(-c4ccccc4)n3)cc2C)c1 [Compound J780],,,,,"BAW rating ([1]; Table ABC, species BAW): A (50-100); CL rating ([2]; Table ABC, species CL): A (50-100)"
"Cc1ccc(C(C)C)c(N2C(=O)CS/C2=N\C(=O)Nc2ccc(-c3ncn(-c4ccc(C(F)(F)F)cc4)n3)c(C)c2)c1 [Compound J4, (Z)-1-(3-(2-Isopropyl-5-methylphenyl)-4-oxothiazolidin-2-ylidene)-3-(3-methyl-4-(1-(4-(trifluoromethyl)phenyl)-1H-1,2,4-triazol-3-yl)phenyl)urea]",50 to 100%,50 to 100%,,,
"CCCc1ccc(N(C)C)cc1N1C(=O)CS/C1=N\C(=O)Nc1ccc(-c2ncn(-c3ccc(SC(F)(F)F)cc3)n2)cc1 [Compound J388, (Z)-1-(3-(5-(Dimethylamino)-2-propylphenyl)-4-oxothiazolidin-2-ylidene)-3-(4-(1-(4-((trifluoromethyl)thio)phenyl)-1H-1,2,4-triazol-3-yl)phenyl)urea]",,,50 to 100%,50 to 100%,
Cc1ccc(COCC(F)(F)Cl)c(N2C(=O)CS/C2=N\C(=O)Nc2ccc(-c3ncn(-c4ccc(OC(F)(F)F)cc4)n3)cc2C)c1 [Compound J436],,,,,"BAW rating ([1]; Table ABC, species BAW): A (50-100); CL rating ([2]; Table ABC, species CL): A (50-100)"
"COC(c1ccc(C)cc1N1C(=O)CS/C1=N\C(=O)Nc1ccc(-c2cn(-c3ccc(C(F)(F)F)cn3)cn2)cc1F)C(F)(F)F (centres unmarked) [Compound J485, (Z)-1-(2-Fluoro-4-(1-(5-(trifluoromethyl)pyridin-2-yl)-1H-imidazol-4-yl)phenyl)-3-(3-(5-methyl-2-(2,2,2-trifluoro-1-methoxyethyl)phenyl)-4-oxothiazolidin-2-ylidene)urea]",,,50 to 100%,50 to 100%,
"COc1ccc(COCC(F)(F)F)c(N2C(=O)CS/C2=N\C(=O)Nc2ccc(-n3cnc(-c4ccc(C(F)(F)F)cc4)n3)cc2F)c1 [Compound J700, (Z)-1-(2-Fluoro-4-(3-(4-(trifluoromethyl)phenyl)-1H-1,2,4-triazol-1-yl)phenyl)-3-(3-(5-methoxy-2-((2,2,2-trifluoroethoxy)methyl)phenyl)-4-oxothiazolidin-2-ylidene)urea]",,,50 to 100%,50 to 100%,
"COC(C)c1ccc(C)cc1N1C(=O)CS/C1=N\C(=O)Nc1ccc(-c2ncn(-c3ccc(OCC#N)cc3)n2)cc1F (centres unmarked) [Compound J340, (Z)-1-(4-(1-(4-(Cyanomethoxy)phenyl)-1H-1,2,4-triazol-3-yl)-2-fluorophenyl)-3-(3-(2-(1-methoxyethyl)-5-methylphenyl)-4-oxothiazolidin-2-ylidene)urea]",50 to 100%,50 to 100%,,,
CCCOCc1ccc(C)cc1N1C(=O)CS/C1=N\C(=O)Nc1ccc(-c2ncn(-c3ccc(OC(F)(F)F)cc3)n2)cc1C [Compound J546],,,,,"BAW rating ([1]; Table ABC, species BAW): A (50-100); CL rating ([2]; Table ABC, species CL): A (50-100)"
"Cc1ccc(C(C)C)c(N2C(=O)CS/C2=N\C(=O)Nc2ccc(-c3ncn(-c4ccc(OC(F)(F)F)cc4)n3)cc2O)c1 [Compound J175, (Z)-1-(2-hydroxy-4-(1-(4-(trifluoromethoxy)phenyl)-1H-1,2,4-triazol-3-yl)phenyl)-3-(3-(2-isopropyl-5-methylphenyl)-4-oxothiazolidin-2-ylidene)urea]",50 to 100%,50 to 100%,,,
"O=C(/N=C1\SCC(=O)N1c1ccccc1COCC(F)(F)F)Nc1ccc(-n2cnc(-c3ccc(OC(F)(F)F)cc3)n2)cc1Cl [Compound J732, (Z)-1-(2-Chloro-4-(3-(4-(trifluoromethoxy)phenyl)-1H-1,2,4-triazol-1-yl)phenyl)-3-(4-oxo-3-(2-((2,2,2-trifluoroethoxy)methyl)phenyl)thiazolidin-2-ylidene)urea]",,,50 to 100%,50 to 100%,
"CN(C)c1ccc(C(F)(F)F)c(N2C(=O)CS/C2=N\C(=O)Nc2ccc(-c3cn(-c4ccc(C(F)(F)F)cn4)cn3)cc2F)c1 [Compound J483, (Z)-1-(3-(5-(Dimethylamino)-2-(trifluoromethyl)phenyl)-4-oxothiazolidin-2-ylidene)-3-(2-fluoro-4-(1-(5-(trifluoromethyl)pyridin-2-yl)-1H-imidazol-4-yl)phenyl)urea]",,,50 to 100%,50 to 100%,
CC(C)c1ccc(N(C)C)cc1N1C(=O)CS/C1=N\C(=O)Nc1ccc(-c2ncn(-c3ccc(S(F)(F)(F)(F)F)cc3)n2)cc1C#N [Compound J585],,,,,"BAW rating ([1]; Table ABC, species BAW): A (50-100); CL rating ([2]; Table ABC, species CL): A (50-100)"
"Cc1ccc(C(C)C)c(N2C(=O)CS/C2=N\C(=O)Nc2ccc(-c3ncn(-c4ccc(OC(F)(F)F)cc4)n3)cc2Cl)c1 [Compound J38, (Z)-1-(2-Chloro-4-(1-(4-(trifluoromethoxy)phenyl)-1H-1,2,4-triazol-3-yl)phenyl)-3-(3-(2-isopropyl-5-methylphenyl)-4-oxothiazolidin-2-ylidene)urea]",50 to 100%,50 to 100%,,,
"Cc1ccc(OCCC(F)(F)F)c(N2C(=O)CS/C2=N\C(=O)Nc2ccc(-c3cn(-c4ccc(C(F)(F)F)cn4)cn3)cc2)c1 [Compound J522, (Z)-1-(3-(5-Methyl-2-(3,3,3-trifluoropropoxy)phenyl)-4-oxothiazolidin-2-ylidene)-3-(4-(1-(5-(trifluoromethyl)pyridin-2-yl)-1H-imidazol-4-yl)phenyl)urea]",,,50 to 100%,50 to 100%,
"CC(=O)N(C)c1ccc(C(C)C)c(N2C(=O)CS/C2=N\C(=O)Nc2ccc(-c3ncn(-c4ccc(OC(F)(F)F)cc4)n3)cc2C)c1 [Compound J199, (Z)-N-(4-Isopropyl-3-(2-(((2-methyl-4-(1-(4-(trifluoromethoxy)phenyl)-1H-1,2,4-triazol-3-yl)phenyl)carbamoyl)imino)-4-oxothiazolidin-3-yl)phenyl)-N-methylacetamide]",50 to 100%,50 to 100%,,,
COC(C)c1ccc(C)cc1N1C(=O)CS/C1=N\C(=O)Nc1ccc(-c2ccn(-c3ccc(C(F)(F)F)nn3)n2)cc1F (centres unmarked) [Compound J381],,,,,"BAW rating ([1]; Table ABC, species BAW): A (50-100); CL rating ([2]; Table ABC, species CL): A (50-100)"
"COC(C)c1ccc(C)cc1N1C(=O)CS/C1=N\C(=O)Nc1c(C)cc(-c2ncn(-c3ccc(OC(F)(F)F)cc3)n2)cc1C (centres unmarked) [Compound J97, (Z)-1-(2,6-Dimethyl-4-(1-(4-(trifluoromethoxy)phenyl)-1H-1,2,4-triazol-3-yl)phenyl)-3-(3-(2-(1-methoxyethyl)-5-methylphenyl)-4-oxothiazolidin-2-ylidene)urea]",50 to 100%,50 to 100%,,,
"CC(C)c1cc(F)c(N(C)C)cc1N1C(=O)CS/C1=N\C(=O)Nc1ccc(-c2ncn(-c3ccc(OC(F)(F)F)cn3)n2)cc1F [Compound J261, (Z)-1-(3-(5-(Dimethylamino)-4-fluoro-2-isopropylphenyl)-4-oxothiazolidin-2-ylidene)-3-(2-fluoro-4-(1-(5-(trifluoromethoxy)pyridin-2-yl)-1H-1,2,4-triazol-3-yl)phenyl)urea]",50 to 100%,50 to 100%,,,
"COc1ccc(OCCC(F)(F)F)c(N2C(=O)CS/C2=N\C(=O)Nc2ccc(-c3ncn(-c4ccc(OC(F)(F)F)cc4)n3)cc2F)c1 [Compound J92, (Z)-1-(2-Fluoro-4-(1-(4-(trifluoromethoxy)phenyl)-1H-1,2,4-triazol-3-yl)phenyl)-3-(3-(5-methoxy-2-(3,3,3-trifluoropropoxy)phenyl)-4-oxothiazolidin-2-ylidene)urea]",50 to 100%,50 to 100%,,,
"Cc1ccc(C(C)C)c(N2C(=O)CS/C2=N\C(=O)Nc2ccc(-c3cn(-c4ccc(S(F)(F)(F)(F)F)cc4)cn3)cc2C)c1 [Compound J613, (Z)-1-(3-(2-Isopropyl-5-methylphenyl)-4-oxothiazolidin-2-ylidene)-3-(2-methyl-4-(1-(4-(pentafluoro-λ^6-sulfaneyl)phenyl)-1H-imidazol-4-yl)phenyl)urea]",,,50 to 100%,50 to 100%,
"CN(C)c1ccc(OCC(F)(F)F)c(N2C(=O)CS/C2=N\C(=O)Nc2ccc(-n3cnc(-c4ccc(OC(F)(F)F)cc4)n3)cc2F)c1 [Compound J688, (Z)-1-(3-(5-(Dimethylamino)-2-(2,2,2-trifluoroethoxy)phenyl)-4-oxothiazolidin-2-ylidene)-3-(2-fluoro-4-(3-(4-(trifluoromethoxy)phenyl)-1H-1,2,4-triazol-1-yl)phenyl)urea]",,,50 to 100%,50 to 100%,
Cc1cccc(N2C(=O)CS/C2=N\C(=O)Nc2ccc(-c3ncn(-c4ccc(S(F)(F)(F)(F)F)cc4)n3)cc2F)c1COCC(F)(F)F [Compound J567],,,,,"BAW rating ([1]; Table ABC, species BAW): A (50-100); CL rating ([2]; Table ABC, species CL): A (50-100)"
Cc1cc(-c2ncn(-c3ccc(S(F)(F)(F)(F)F)cc3)n2)ccc1NC(=O)/N=C1\SCC(=O)N1c1cccc(C)c1COCC(F)(F)F [Compound J578],,,,,"BAW rating ([1]; Table ABC, species BAW): A (50-100); CL rating ([2]; Table ABC, species CL): A (50-100)"
